Among the test systems are A549; BT-549; DMS-114; HCT-116; HL-60; HT-29; IGROV-1; MDA-N; NCI-H226; NCI-H23; NCI-H522; NCI/ADR-RES; OVCAR-5; OVCAR-8; RPMI-8226; SF-295; SF-539; SR; TK-10; UACC-257.
What all share (experiment): NCI-60 cell line screen, 48 h

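Grown in 96-well plates, cells were treated for 48 hours with each compound at five concentrations. Insufficient inhibition: endpoint recorded as highest concentration tested. The concentration for 50% growth inhibition is given as GI50.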 Calls of active or inactive are those of the source. No stated cut-off is given here; in the data, active = GI50 up to about 1.1 µM and inactive = higher.

For the compound `O=Cc1ccc(-c2cccs2)s1`, the GI50 in the assay with A549 is 60 µM (inactive); in the assay with BT-549 it was 51.3 µM (inactive); with DMS-114 it was > 90.8 µM (inactive); in the assay on HCT-116 it was 39.2 µM (inactive); in the assay on HL-60, 49.3 µM (inactive); in the assay on HT-29, 63.5 µM (inactive). Further, the GI50 with IGROV-1 is 12.6 µM (inactive); in the assay on MDA-N, > 100 µM (inactive); in the assay on NCI-H226, 1.94 µM (inactive); in the assay with NCI-H23, > 68.1 µM (inactive); in the assay on NCI-H522 it was > 100 µM (inactive); in the assay on NCI/ADR-RES it was 42.2 µM (inactive). The GI50 in the assay on OVCAR-5 was 16.7 µM (inactive); with OVCAR-8, > 100 µM (inactive); with RPMI-8226, 57.5 µM (inactive); in the assay with SF-295, > 100 µM (inactive); in the assay on SF-539, > 100 µM (inactive); with SR, 77.4 µM (inactive). Also, the GI50 is 3.88 µM (inactive) in the assay on TK-10 and 6.62 µM (inactive) in the assay on UACC-257.

`CN(C)CCNc1ccc2nnn3c4ccccc4c(=O)c1c23`: the GI50 in the assay with A549 is 2.26 µM (inactive); in the assay on BT-549, 13.2 µM (inactive); in the assay with DMS-114, 4.07 µM (inactive); with HCT-116, 1.56 µM (inactive); with HL-60, 3.44 µM (inactive); in the assay on HT-29, 2.01 µM (inactive). For the same compound, the GI50 with IGROV-1 was 3.38 µM (inactive); in the assay with MDA-N, 2.81 µM (inactive); with NCI-H226, 1.74 µM (inactive); in the assay on NCI-H23, 3.91 µM (inactive); in the assay with NCI-H522 it was 2.64 µM (inactive); with NCI/ADR-RES, 2.4 µM (inactive). In addition, the GI50 with OVCAR-5 is 3.72 µM (inactive); in the assay with OVCAR-8, 2.21 µM (inactive); with RPMI-8226 it was 2.92 µM (inactive); with SF-295 it was 3.57 µM (inactive); in the assay with SF-539, 4.75 µM (inactive); with SR, 2.34 µM (inactive). In addition, the GI50 is 3.31 µM (inactive) in the assay on TK-10 and 3.46 µM (inactive) with UACC-257.

For the compound `CC[C@]12C=CCN3CCC4(c5cc([C@@]6(C(=O)OC)CC7CN(CCc8c6[nH]c6ccccc86)CC6CCCCC67)c(OC)cc5N(C)C4[C@](O)(C(=O)OC)C1OC(C)=O)[C@@H]32` (some centres undefined), the GI50 in the assay with A549, in the assay on DMS-114, in the assay on HCT-116, in the assay on HL-60, in the assay on HT-29 and with IGROV-1 was < 0.01 µM (active) each time. Further, the GI50 is < 0.01 µM (active) in the assay on MDA-N; < 0.01 µM (active) in the assay on NCI-H226; < 0.01 µM (active) with NCI-H23; < 0.01 µM (active) with NCI-H522; 0.186 µM (active) in the assay on NCI/ADR-RES; 0.021 µM (active) with OVCAR-5. For the same compound, the GI50 is < 0.015 µM (active) in the assay on OVCAR-8; < 0.01 µM (active) in the assay with RPMI-8226; < 0.01 µM (active) with SF-295; < 0.01 µM (active) in the assay on SF-539; 0.0643 µM (active) in the assay with TK-10; < 0.01 µM (active) in the assay on UACC-257.

For the compound `O=S1(=O)CS(=O)(=O)OCCO1`, the GI50 in the assay on A549 was 46.1 µM (inactive); in the assay with BT-549, 37.8 µM (inactive); in the assay with DMS-114, 37.5 µM (inactive); in the assay on HCT-116, 37.7 µM (inactive); in the assay with HL-60, 11.2 µM (inactive); in the assay on HT-29, 63.1 µM (inactive). Besides, the GI50 in the assay with IGROV-1 is 33.4 µM (inactive); in the assay on MDA-N, 33.8 µM (inactive); in the assay on NCI-H226, 41.4 µM (inactive); in the assay with NCI-H23 it was 37.8 µM (inactive); with NCI-H522, 48.3 µM (inactive); in the assay on NCI/ADR-RES it was 50.9 µM (inactive). Besides, the GI50 was 85.5 µM (inactive) with OVCAR-5; 55.3 µM (inactive) with OVCAR-8; 62.5 µM (inactive) with RPMI-8226; 13.2 µM (inactive) in the assay with SF-295; 11.3 µM (inactive) in the assay with SF-539; 153 µM (inactive) in the assay with SR. In addition, the GI50 with TK-10 is 82.8 µM (inactive); in the assay on UACC-257, 50.5 µM (inactive).

`CCN(CC)c1ccc(/C=C2/C[N+](C)(C)C/C(=C/c3ccc(N(CC)CC)cc3)C2=O)cc1`: the GI50 was 4.92 µM (inactive) in the assay with A549; 1.61 µM (inactive) with BT-549; 1.41 µM (inactive) in the assay on DMS-114; 2.3 µM (inactive) in the assay with HCT-116; 0.365 µM (active) in the assay on HL-60; 1.58 µM (inactive) with HT-29. Moreover, the GI50 is 2.19 µM (inactive) in the assay on IGROV-1; 1.66 µM (inactive) in the assay on MDA-N; 6.21 µM (inactive) in the assay on NCI-H226; 1.69 µM (inactive) in the assay on NCI-H23; 2.06 µM (inactive) with NCI-H522; > 100 µM (inactive) in the assay with NCI/ADR-RES. Further, the GI50 in the assay with OVCAR-5 was 9.73 µM (inactive); with OVCAR-8 it was 3.32 µM (inactive); in the assay on RPMI-8226, 0.653 µM (active); in the assay on SF-295, 11.9 µM (inactive); with SF-539, 2.32 µM (inactive); in the assay on SR, 0.968 µM (active). For the same compound, the results for the GI50 with TK-10 and with UACC-257 were 9.84 µM (inactive) and 2.09 µM (inactive), respectively.

`C=CC(=O)C#CC#CC/C=C\CCCCCCC`: the GI50 in the assay on A549 is > 20.6 µM (inactive); in the assay with BT-549, > 20.6 µM (inactive); with DMS-114 it was 10.3 µM (inactive); in the assay with HCT-116, > 17.6 µM (inactive); with HL-60, 9.91 µM (inactive); in the assay with HT-29 it was > 20.6 µM (inactive). Moreover, the GI50 was > 6.52 µM (inactive) with IGROV-1; > 20.6 µM (inactive) with NCI-H226; > 20.6 µM (inactive) with NCI-H23; 16 µM (inactive) in the assay on NCI-H522; > 20.6 µM (inactive) with NCI/ADR-RES; > 20.6 µM (inactive) in the assay with OVCAR-5. In addition, the GI50 was > 19.8 µM (inactive) with OVCAR-8; 5.6 µM (inactive) with RPMI-8226; > 20.6 µM (inactive) in the assay on SF-295; > 20.6 µM (inactive) with SF-539; 5.65 µM (inactive) in the assay on SR; > 20.6 µM (inactive) in the assay with TK-10. The GI50 with UACC-257 was > 20.6 µM (inactive).

Turning to `Cc1c(/C=N/N=C/c2[nH]c(C(=O)OC(C)(C)C)c(C)c2C)[nH]c(C(=O)OC(C)(C)C)c1C`, the GI50 was > 100 µM (inactive) in the assay with A549; > 100 µM (inactive) with DMS-114; > 100 µM (inactive) with HCT-116; 43.3 µM (inactive) in the assay on HL-60; > 100 µM (inactive) in the assay with HT-29; > 100 µM (inactive) with IGROV-1. The GI50 was > 100 µM (inactive) in the assay with NCI-H226; > 100 µM (inactive) in the assay with NCI-H23; 66.5 µM (inactive) with NCI-H522; > 100 µM (inactive) in the assay on OVCAR-5; 98.9 µM (inactive) in the assay on OVCAR-8; 90.6 µM (inactive) in the assay on RPMI-8226. The GI50 with SF-295, with SF-539, in the assay on SR, in the assay on TK-10 and in the assay with UACC-257 was > 100 µM (inactive) in each case.

The values above are taken from ChEMBL document CHEMBL1201862, “PubChem BioAssay data set” (2004).
